Results taken from the pKa sets of Baltruschat and Czodrowski (2020).

conditions: acidic group

Question: For `CC(=O)C1=CC=CC1`, which pKa is on record?
Answer: Its pKa is 8.84.

Question: With `CCn1cccc(O)c1=O` as the compound, how does the pKa read?
Answer: Its pKa is 8.99.

Question: With `O/N=C1\CCCC\C1=N/O` as the compound, how does the pKa read?
Answer: The pKa was 10.5.

Question: Which pKa does the source give for `Cc1cc(O)n[nH]1` here?
Answer: The pKa was 10.9.

Question: With `C[NH+](C)CCCCCCCCCCNC(=O)/C=N/O` as the compound, how does the pKa read?
Answer: Its pKa is 9.02.

Question: With `O=CNOC(=O)/C=C/c1ccccc1` as the compound, how does the pKa read?
Answer: Its pKa is 5.9.

Question: For `CCOC(=O)CC(=O)c1ccc(C)cc1`, which pKa is on record?
Answer: The pKa was 10.7.

Question: Which pKa does the source give for `S=C1NCCO1` here?
Answer: The pKa was 11.1.

Question: For `O=C(O)c1ccc(-c2nnn[nH]2)cc1`, which pKa is on record?
Answer: The pKa was 3.63.

Question: Which pKa does the source give for `O=C(O)c1ccco1` here?
Answer: Its pKa is 3.18.

Question: With `CN(C)Cc1cc(OCc2ccccc2)ccc1O` as the compound, how does the pKa read?
Answer: Its pKa is 11.5.

Question: With `O=C([O-])CNC(=O)c1cccc(O)c1O` as the compound, how does the pKa read?
Answer: Its pKa is 7.7.

Question: Which pKa does the source give for `Cc1cc(C(=O)O)n[nH]1` here?
Answer: The pKa was 3.99.

Question: With `COc1ccc(-c2nc3nnc(SC)nc3[nH]2)c(OC)c1` as the compound, how does the pKa read?
Answer: The pKa was 7.69.

Question: With `Oc1nc2nc[nH]c2c(O)[nH+]1` as the compound, how does the pKa read?
Answer: The pKa was 1.2.

Question: With `COc1cccc2c1-c1c(O)cccc1-2` as the compound, how does the pKa read?
Answer: The pKa was 9.15.

Question: With `Nc1cc(O)ccc1O` as the compound, how does the pKa read?
Answer: Its pKa is 10.1.

Question: Which pKa does the source give for `COc1ccc(O)cc1` here?
Answer: The pKa was 10.2.

Question: Which pKa does the source give for `O=C([O-])Cc1nnn[nH]1` here?
Answer: The pKa was 5.32.

Question: With `[NH3+]CCCCCCCCCCCC(=O)O` as the compound, how does the pKa read?
Answer: Its pKa is 4.65.

Question: With `[NH3+]c1ccc(O[C@H]2O[C@@H](C(=O)O)[C@H](O)[C@@H](O)[C@@H]2O)cc1` as the compound, how does the pKa read?
Answer: Its pKa is 3.1.

Question: For `O=C(O)C1C2CCC1CC2` (stereo unspecified), which pKa is on record?
Answer: The pKa was 4.85.

Question: For `O=[N+]([O-])c1cc[n+](O)cc1`, which pKa is on record?
Answer: The pKa was -1.7.

Question: Which pKa does the source give for `N#CC(c1ccc(Cl)cc1)c1ccc([N+](=O)[O-])cc1` (stereo unspecified) here?
Answer: Its pKa is 10.7.

Question: With `CCCOc1ccccc1C(=O)O` as the compound, how does the pKa read?
Answer: The pKa was 4.24.

Question: Which pKa does the source give for `O=C(O)Cn1c2ccccc2c2ccccc21` here?
Answer: Its pKa is 3.55.

Question: Which pKa does the source give for `Oc1ccc2c(c1)Cc1ccccc1-2` here?
Answer: The pKa was 9.51.

Question: Which pKa does the source give for `C=CC(CC(C)(C)CC(C)(C)C)c1ccc2cccnc2c1O` (stereo unspecified) here?
Answer: The pKa was 10.

Question: With `CC(=O)Nc1ccc(O)c([N+](=O)[O-])c1` as the compound, how does the pKa read?
Answer: The pKa was 6.78.

Question: With `Cc1cc(O)ccc1C(=O)O` as the compound, how does the pKa read?
Answer: Its pKa is 4.71.

Question: Which pKa does the source give for `O=C(C[n+]1cccc2c3ccccc3ccc21)c1ccc(-c2ccccc2)cc1` here?
Answer: Its pKa is 11.2.

Question: With `CCCP(=O)(O)CCC` as the compound, how does the pKa read?
Answer: The pKa was 3.33.

Question: For `Cc1cc(I)c(O)c(I)c1`, which pKa is on record?
Answer: The pKa was 6.

Question: With `O=C(O)CCC(=O)c1ccc(-c2ccccc2)cc1` as the compound, how does the pKa read?
Answer: Its pKa is 4.46.

Question: With `COC(=O)/C=C(/C)O` as the compound, how does the pKa read?
Answer: Its pKa is 9.48.

Question: With `Cc1csc(Cc2ccccc2)[n+]1C` as the compound, how does the pKa read?
Answer: Its pKa is 10.8.

Question: Which pKa does the source give for `Nc1nccc2c1[nH+]cn2CCOCP(=O)([O-])O` here?
Answer: Its pKa is 6.56.

Question: With `CCC(=O)OO` as the compound, how does the pKa read?
Answer: The pKa was 8.1.

Question: Which pKa does the source give for `CC(=O)c1ccc(S)cc1` here?
Answer: The pKa was 5.33.

Question: Which pKa does the source give for `Nc1ccc(C(=O)[O-])c2ncccc12` here?
Answer: Its pKa is 12.6.

Question: With `CC(=O)OO` as the compound, how does the pKa read?
Answer: Its pKa is 8.19.

Question: For `O=C(C[n+]1cccc2c3ccccc3ccc21)c1ccc([N+](=O)[O-])cc1`, which pKa is on record?
Answer: Its pKa is 9.45.

Question: Which pKa does the source give for `CC(=O)c1c(C)cc(C)cc1C` here?
Answer: Its pKa is 10.7.

Question: With `Cc1ccc(C(=O)S)cc1` as the compound, how does the pKa read?
Answer: The pKa was 2.59.

Question: For `N#CC(CC(=O)O)c1ccccc1` (stereo unspecified), which pKa is on record?
Answer: The pKa was 3.79.

Question: With `CCOc1cccc(C(=O)O)c1` as the compound, how does the pKa read?
Answer: Its pKa is 4.17.

Question: Which pKa does the source give for `Cc1ccc[n+](O)c1` here?
Answer: The pKa was 1.08.

Question: For `CC(O)[C@@H]1C[C@H](CC(=O)O)C1(C)C` (stereo partly specified), which pKa is on record?
Answer: The pKa was 4.83.

Question: With `O=[N+]([O-])/C=C/c1cccc(O)c1` as the compound, how does the pKa read?
Answer: The pKa was 9.05.

Question: With `O=C(O)c1cccc2cc3ccccc3cc12` as the compound, how does the pKa read?
Answer: The pKa was 3.7.

Question: With `CC(C)(C)[NH2+]CC(=O)c1ccc(O)cc1` as the compound, how does the pKa read?
Answer: Its pKa is 7.9.

Question: Which pKa does the source give for `COc1ccc(NC(=S)c2ccc(Cl)cc2)cc1` here?
Answer: Its pKa is 11.3.

Question: Which pKa does the source give for `Nc1ccccc1B(O)O` here?
Answer: The pKa was 9.23.

Question: Which pKa does the source give for `Sc1ccc(Cl)cc1` here?
Answer: Its pKa is 5.82.

Question: For `C[n+]1cccc2ccc(O)cc21`, which pKa is on record?
Answer: Its pKa is 5.56.

Question: For `OCC[NH+](CCc1nnn[nH]1)CCc1nnn[nH]1`, which pKa is on record?
Answer: The pKa was 4.23.

Question: For `O=C1CCC(=O)C1=O`, which pKa is on record?
Answer: Its pKa is 8.48.

Question: With `CC([NH3+])C(=O)O` (stereo unspecified) as the compound, how does the pKa read?
Answer: Its pKa is 2.36.

Question: With `N#Cc1cccc(S(N)(=O)=O)c1` as the compound, how does the pKa read?
Answer: Its pKa is 8.84.

Question: For `C[n+]1ccc2ccc(O)cc2c1`, which pKa is on record?
Answer: The pKa was 7.09.

Question: For `CC(C)=CCC(=O)O`, which pKa is on record?
Answer: Its pKa is 4.6.

Question: For `CCCCCC(=O)O`, which pKa is on record?
Answer: Its pKa is 4.85.

Question: For `O=S(=O)([O-])c1ccc(O)c2cn[nH]c12`, which pKa is on record?
Answer: The pKa was 7.6.

Question: With `CCNC(O)=S` as the compound, how does the pKa read?
Answer: Its pKa is 0.92.

Question: With `Nc1ncc2[nH]c(-c3ccccc3)nc2n1` as the compound, how does the pKa read?
Answer: The pKa was 9.2.

Question: Which pKa does the source give for `CC(=N\O)/C(CO)=N/[O-]` here?
Answer: The pKa was 12.1.

Question: Which pKa does the source give for `OC[C@H]1O[C@@H]2NC(=S)O[C@@H]2[C@H]1O` here?
Answer: The pKa was 9.48.

Question: With `Cc1nc2nc([O-])[nH]c(=O)c2[nH]1` as the compound, how does the pKa read?
Answer: Its pKa is 9.7.

Question: For `C[NH+](C)CCc1ccccc1O`, which pKa is on record?
Answer: The pKa was 8.75.

Question: With `COc1cccc(OC)c1-c1nc2cnccc2[nH]1` as the compound, how does the pKa read?
Answer: The pKa was 10.9.

Question: Which pKa does the source give for `CCOc1cccc[n+]1O` here?
Answer: Its pKa is 1.18.

Question: With `COc1ccc(-c2nnn[nH]2)cc1` as the compound, how does the pKa read?
Answer: Its pKa is 4.23.

Question: For `C[n+]1cccc(CC(=O)c2ccccc2)c1`, which pKa is on record?
Answer: Its pKa is 11.

Question: For `CC(=O)[n+]1cccc(C)c1`, which pKa is on record?
Answer: The pKa was 5.81.

Question: With `O=C([O-])CC(=O)/C=N/O` as the compound, how does the pKa read?
Answer: Its pKa is 8.7.

Question: For `CC(C#N)(CC(=O)O)c1ccccc1` (stereo unspecified), which pKa is on record?
Answer: The pKa was 3.99.

Question: With `Oc1cn[nH+]c2ccccc12` as the compound, how does the pKa read?
Answer: The pKa was -0.35.

Question: For `O=C([O-])/C=C/c1ccccc1O`, which pKa is on record?
Answer: Its pKa is 9.63.

Question: With `Cc1ccccc1SCC(=O)O` as the compound, how does the pKa read?
Answer: The pKa was 3.46.

Question: With `[O-][n+]1c2ccccc2[n+](O)c2ccccc21` as the compound, how does the pKa read?
Answer: Its pKa is -1.62.

same assay, conditions: basic group

Question: For `COc1cc(S(C)(=O)=O)cc(C(=O)N[C@@H]2C[C@H]3CC[C@@H](C2)N3Cc2ccccc2)c1OC`, which pKa is on record?
Answer: Its pKa is 8.92.

Question: With `Nc1ccc(-c2ccc(N)cc2)cc1` as the compound, how does the pKa read?
Answer: Its pKa is 4.96.

Question: With `Cn1c(N)nc(=O)c2[nH]cnc21` as the compound, how does the pKa read?
Answer: The pKa was 4.61.

Question: Which pKa does the source give for `Nc1nccc(-c2csc(N)[nH+]2)n1` here?
Answer: The pKa was 2.6.

Question: With `O=Cc1ccccn1` as the compound, how does the pKa read?
Answer: The pKa was 3.86.

Question: With `CC(C)n1cnc2ccccc21` as the compound, how does the pKa read?
Answer: The pKa was 5.74.

Question: Which pKa does the source give for `Nc1cccc(-c2nc3ccccc3s2)c1` here?
Answer: The pKa was 3.4.

Question: With `[O-]c1ccnc([O-])c1` as the compound, how does the pKa read?
Answer: Its pKa is 13.

Question: For `CCCCCCN(CC(C)O)CC(C)O` (stereo unspecified), which pKa is on record?
Answer: Its pKa is 8.5.

Question: Which pKa does the source give for `[NH3+][C@@H](Cc1c[nH]cn1)C(=O)NCC(=O)[O-]` here?
Answer: Its pKa is 5.8.

Question: For `O=C(O)c1ccco1`, which pKa is on record?
Answer: The pKa was -0.53.
